Laboratory results: PubChem BioAssay (NCI)
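Assay format: 96-well plates, 48-hour exposure. The concentration for full growth arrest is given as TGI.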

Tests used:
Assay in all cases: DTP human tumour cell line panel, 48 h
[1] = test system: T-47D breast
[2] = test system: SF-539 CNS
[3] = test system: HOP-92 NSCLC
[4] = test system: NCI-H522 lung
[5] = test system: SR leukemia
[6] = test system: RXF 393 renal
[7] = test system: UACC-62 melanoma
[8] = test system: HCT-116 colon
[9] = test system: U251 CNS
[10] = test system: A549 NSCLC
[11] = test system: NCI-H460 lung
[12] = test system: PC-3 prostate
[13] = test system: SF-268 CNS
[14] = test system: DU-145 prostate
[15] = test system: MDA-MB-231 breast
[16] = test system: SNB-75 CNS
[17] = test system: UACC-257 melanoma
[18] = test system: KM12 colon
[19] = test system: OVCAR-8 ovarian
[20] = test system: MALME-3M melanoma
[21] = test system: SNB-19 CNS
[22] = test system: M14 melanoma
[23] = test system: OVCAR-4 ovarian
[24] = test system: SK-MEL-5 melanoma
[25] = test system: NCI-H23 lung
[26] = test system: SK-MEL-28 melanoma
[27] = test system: SW-620 colon
[28] = test system: EKVX NSCLC
[29] = test system: OVCAR-3 ovarian
[30] = test system: A498 renal
[31] = test system: NCI/ADR-RES ovarian
[32] = test system: HL-60(TB) leukemia
[33] = test system: MDA-N
[34] = test system: HS 578T breast
[35] = test system: MCF7 breast
[36] = test system: NCI-H226 lung
[37] = test system: SF-295 CNS
[38] = test system: RPMI-8226 leukemia
[39] = test system: LOX IMVI melanoma
[40] = test system: ACHN renal
[41] = test system: 786-0 renal
[42] = test system: BT-549 breast
[43] = test system: MDA-MB-435
[44] = test system: TK-10 renal
[45] = test system: COLO 205 colon
[46] = test system: SK-MEL-2 melanoma
[47] = test system: SK-OV-3 ovarian
[48] = test system: K-562 leukemia
[49] = test system: SN12C renal
[50] = test system: CAKI-1 renal
[51] = test system: OVCAR-5 ovarian
[52] = test system: MOLT-4 leukemia
[53] = test system: UO-31 renal
[54] = test system: IGROV1 ovarian
[55] = test system: HOP-62 NSCLC
[56] = test system: HT29 colon
[57] = test system: HCT-15 colon
[58] = test system: HCC-2998 colon
[59] = test system: CCRF-CEM leukemia

Structure (SMILES): CN(C)c1ccccc1CN1CCCN(Cc2ccccc2N(C)C)C1c1ccncc1
- TGI [1]: 38.7 µM
- TGI [2]: 36 µM
- TGI [3]: 14.8 µM
- TGI [4]: 32.5 µM
- TGI [5]: 21.7 µM
- TGI [6]: 22.4 µM
- TGI [7]: 27.6 µM
- TGI [8]: 23.3 µM
- TGI [9]: > 100 µM
- TGI [10]: 40.7 µM
- TGI [11]: 28.5 µM
- TGI [12]: > 100 µM
- TGI [13]: 37.9 µM
- TGI [14]: 31.5 µM
- TGI [15]: 51.5 µM
- TGI [16]: 32.1 µM
- TGI [17]: 7.98 µM
- TGI [18]: 41.7 µM
- TGI [19]: 29 µM
- TGI [20]: 23.4 µM
- TGI [21]: 33 µM
- TGI [22]: 8.62 µM
- TGI [23]: 33 µM
- TGI [24]: 18.3 µM
- TGI [25]: 43 µM
- TGI [26]: 23.7 µM
- TGI [27]: 42.2 µM
- TGI [28]: 38 µM
- TGI [29]: 28 µM
- TGI [30]: 24.8 µM
- TGI [31]: 58 µM
- TGI [32]: 32.4 µM
- TGI [33]: 23.8 µM
- TGI [34]: 41.8 µM
- TGI [35]: 29.6 µM
- TGI [36]: 38.7 µM
- TGI [37]: 29.8 µM
- TGI [38]: 32.1 µM
- TGI [39]: 28.4 µM
- TGI [40]: 99.2 µM
- TGI [41]: 32.2 µM
- TGI [42]: 34.6 µM
- TGI [43]: 20.2 µM
- TGI [44]: 28.4 µM
- TGI [45]: 30.3 µM
- TGI [46]: 36.5 µM
- TGI [47]: 32.9 µM
- TGI [48]: 23.9 µM
- TGI [49]: 62.2 µM
- TGI [50]: 34.6 µM
- TGI [51]: 40.9 µM
- TGI [52]: 43.6 µM
- TGI [53]: 13.9 µM
- TGI [54]: 28.1 µM
- TGI [55]: 30.3 µM
- TGI [56]: 26.5 µM
- TGI [57]: 51.7 µM

Structure (SMILES): COc1ccc2oc(OC)c(CC=C(C)C)c(=O)c2c1C
- TGI [1]: > 100 µM
- TGI [2]: > 100 µM
- TGI [4]: > 100 µM
- TGI [5]: > 100 µM
- TGI [7]: > 100 µM
- TGI [8]: > 100 µM
- TGI [9]: > 100 µM
- TGI [10]: > 100 µM
- TGI [11]: > 100 µM
- TGI [12]: > 100 µM
- TGI [13]: > 100 µM
- TGI [14]: > 100 µM
- TGI [15]: > 100 µM
- TGI [16]: > 100 µM
- TGI [17]: > 100 µM
- TGI [18]: > 100 µM
- TGI [19]: > 100 µM
- TGI [20]: > 100 µM
- TGI [21]: > 100 µM
- TGI [22]: > 100 µM
- TGI [24]: > 100 µM
- TGI [25]: > 100 µM
- TGI [26]: > 100 µM
- TGI [27]: > 100 µM
- TGI [28]: > 100 µM
- TGI [29]: > 100 µM
- TGI [30]: > 100 µM
- TGI [31]: > 100 µM
- TGI [32]: > 100 µM
- TGI [33]: > 100 µM
- TGI [34]: > 100 µM
- TGI [35]: > 100 µM
- TGI [36]: > 100 µM
- TGI [37]: > 100 µM
- TGI [38]: > 100 µM
- TGI [39]: > 100 µM
- TGI [40]: > 100 µM
- TGI [41]: > 100 µM
- TGI [42]: > 100 µM
- TGI [43]: > 100 µM
- TGI [44]: > 100 µM
- TGI [45]: > 100 µM
- TGI [46]: > 100 µM
- TGI [47]: > 100 µM
- TGI [48]: > 100 µM
- TGI [49]: > 100 µM
- TGI [50]: > 100 µM
- TGI [51]: > 100 µM
- TGI [52]: > 100 µM
- TGI [53]: > 100 µM
- TGI [58]: > 100 µM
- TGI [54]: > 100 µM
- TGI [55]: > 100 µM
- TGI [59]: > 100 µM
- TGI [56]: > 100 µM
- TGI [57]: > 100 µM

Structure (SMILES): COC(=O)C1=C(O)C(C(=O)OC)[C@]2(O)[C@H](C(=O)OC)[C@H]1C[C@@H](c1c(Cl)cccc1Cl)[C@H]2C(=O)OC (some centres undefined)
- TGI [1]: 23 µM
- TGI [2]: 3.78 µM
- TGI [3]: 14 µM
- TGI [5]: 4.87 µM
- TGI [6]: 3.92 µM
- TGI [7]: 5.56 µM
- TGI [8]: 3.42 µM
- TGI [9]: 2.99 µM
- TGI [10]: 6.21 µM
- TGI [11]: 6.55 µM
- TGI [12]: 10.5 µM
- TGI [13]: 12.9 µM
- TGI [14]: 8.2 µM
- TGI [15]: 12.9 µM
- TGI [16]: 8.7 µM
- TGI [17]: 6.08 µM
- TGI [18]: 8.6 µM
- TGI [19]: 3.66 µM
- TGI [20]: 5.25 µM
- TGI [21]: 5.13 µM
- TGI [22]: 2.88 µM
- TGI [23]: 30.4 µM
- TGI [24]: 3.02 µM
- TGI [25]: 5.44 µM
- TGI [26]: 7.55 µM
- TGI [27]: 11 µM
- TGI [28]: 18.4 µM
- TGI [29]: 7.87 µM
- TGI [30]: 4.15 µM
- TGI [31]: 7.01 µM
- TGI [32]: 18.7 µM
- TGI [33]: 3.02 µM
- TGI [34]: 27.3 µM
- TGI [35]: 12.3 µM
- TGI [36]: 4.87 µM
- TGI [37]: 7.57 µM
- TGI [38]: 3.38 µM
- TGI [39]: 3.69 µM
- TGI [40]: 4.86 µM
- TGI [41]: 3.48 µM
- TGI [42]: 6.99 µM
- TGI [43]: 3.3 µM
- TGI [45]: 4.37 µM
- TGI [46]: 3.33 µM
- TGI [47]: 14.2 µM
- TGI [48]: 6.92 µM
- TGI [49]: 5.2 µM
- TGI [50]: 11.3 µM
- TGI [52]: 5.31 µM
- TGI [53]: 3.01 µM
- TGI [58]: 3.03 µM
- TGI [54]: 5.99 µM
- TGI [55]: 10.8 µM
- TGI [56]: 7.16 µM
- TGI [57]: 4.49 µM

Structure (SMILES): CCCCCCCCCCCCOP(=O)(O)OCC(N)C(=O)O (centres undefined)
- TGI [1]: > 100 µM
- TGI [2]: 51.6 µM
- TGI [3]: 43.3 µM
- TGI [4]: > 100 µM
- TGI [5]: 90 µM
- TGI [6]: > 100 µM
- TGI [8]: 27.6 µM
- TGI [9]: 26.7 µM
- TGI [10]: > 100 µM
- TGI [11]: 43.2 µM
- TGI [12]: 35.1 µM
- TGI [13]: > 100 µM
- TGI [14]: > 100 µM
- TGI [15]: 58 µM
- TGI [16]: 51.9 µM
- TGI [17]: > 100 µM
- TGI [19]: > 100 µM
- TGI [20]: > 100 µM
- TGI [21]: 44 µM
- TGI [22]: > 100 µM
- TGI [23]: > 100 µM
- TGI [24]: 61.7 µM
- TGI [25]: > 100 µM
- TGI [26]: > 100 µM
- TGI [27]: > 100 µM
- TGI [28]: > 100 µM
- TGI [29]: 33.2 µM
- TGI [30]: 75.8 µM
- TGI [31]: > 100 µM
- TGI [32]: 36.8 µM
- TGI [33]: 62.6 µM
- TGI [34]: 33.3 µM
- TGI [35]: > 100 µM
- TGI [36]: > 100 µM
- TGI [37]: 41.7 µM
- TGI [38]: 68.5 µM
- TGI [39]: 64 µM
- TGI [40]: > 100 µM
- TGI [41]: > 100 µM
- TGI [42]: 64 µM
- TGI [43]: 36.8 µM
- TGI [44]: 53 µM
- TGI [45]: > 100 µM
- TGI [46]: 51.8 µM
- TGI [47]: 50.1 µM
- TGI [48]: > 100 µM
- TGI [49]: 61 µM
- TGI [50]: 95.8 µM
- TGI [51]: > 100 µM
- TGI [52]: 36.2 µM
- TGI [53]: 28.9 µM
- TGI [58]: > 100 µM
- TGI [54]: > 100 µM
- TGI [55]: 31.6 µM
- TGI [56]: > 100 µM
- TGI [57]: 36.6 µM
